This passage reports viability results from paper PMC12040169 (PLOS Biology, 2025).

The nature of this series: in vitro. To be noted: human, hela cells, % viability.

SMILES strings stand for the structures.

On to `COc1ccc(N2C(=O)CSC23C(=O)Nc2ccc(Br)cc23)cc1` (stereo not shown) [CBK093454], for which the viability (in general, a read-out of living cells in per cent, often relative to untreated cells) at 28.5 h, 10 µM was determined as 96.6%.

With `CC1SC2(C(=O)Nc3ccccc32)N(c2ccc(F)cc2)C1=O` (stereo not shown) [CBK093463], the viability at 28.5 h, 10 µM came out at 96.8%.

Take `C=CCN1C(=O)C2(Nc3ccccc3C(=O)N2c2ccc(Cl)cc2)c2ccccc21` (stereo not shown) [CBK093474]: the viability at 28.5 h, 10 µM turned out to be 106%.

For the compound `CCN(CC)C(=O)CN1C(=O)C2(Nc3ccccc3C(=O)N2c2ccc(C)cc2)c2ccccc21` (stereo not shown) [CBK093478], the viability at 28.5 h, 10 µM amounted to 86%.

For `COc1nc(-c2cccnc2)cn2ccnc12` [CBK093490], the viability at 28.5 h, 10 µM came out at 82.1%.

As to `Cc1ccc(S(N)(=O)=O)cc1CNC(=O)Nc1cccc(F)c1` [CBK093516], the viability at 28.5 h, 10 µM was 83.9%.

As to `Cn1[nH]c(COC(C)(C)C)c(Cc2c(Cl)cccc2Cl)c1=O` [CBK093521], the viability at 28.5 h, 10 µM came to 99.4%.

Take `COc1ccc(CCn2nc(C(=O)O)c3ccccc32)cc1` [CBK093525]: the viability at 28.5 h, 10 µM (bulk resorufin, single well) was 85%.

Turning to `COc1ccc(Cn2nc(N)c3ccccc32)cc1` [CBK093530], the viability at 28.5 h, 10 µM turned out to be 93.3%.

As to `CCCc1[nH]nc(O)c1C(=O)c1c(Cl)cccc1Cl` [CBK093553], the viability at 28.5 h, 10 µM was determined as 95.7%.

For `CC(C)Nc1cncc(Sc2cccc(C(=O)O)c2)n1` [CBK093582], the viability at 28.5 h, 10 µM worked out at 95.1%.

For the compound `O=C(O)c1cccc(Sc2nc3cc(Cl)c(Cl)cc3nc2N2CCCC2)c1` [CBK093588], the viability at 28.5 h, 10 µM came to 118%.

For the compound `O=C(O)c1cccc(Sc2cccc(C(F)(F)F)n2)c1` [CBK093592], the viability at 28.5 h, 10 µM was determined as 98%.

In the case of `CNC(=O)c1cnc(SC)nc1NCCc1c[nH]c2ccccc12` [CBK093597], the viability at 28.5 h, 10 µM stood at 104%.

For `CCOC(=O)c1cnc(N2CCOCC2)nc1NCCc1c[nH]c2ccccc12` [CBK093605], the viability at 28.5 h, 10 µM worked out at 106%.

As for `c1cncc(-c2cn3ccnc3c(NC3CCCCC3)n2)c1` [CBK093606], the viability at 28.5 h, 10 µM is 84.6%.

With `CC(C)Nc1nc(-c2cccnc2)cn2ccnc12` [CBK093608], the viability at 28.5 h, 10 µM stood at 96.6%.

On to `NC1=NNC2=C(c3ccc(F)cc3)NNN12` [CBK093659], for which the viability at 28.5 h, 10 µM worked out at 86%.

With `NC1=NNC2=C(c3cccc(Cl)c3)NNN12` [CBK093661], the viability at 28.5 h, 10 µM was 87.3%.

Take `COc1cccc(N2N=C3NNC(N)=C3N2)c1` [CBK093665]: the viability at 28.5 h, 10 µM turned out to be 83.7%.

In the case of `CC(=O)N1CCC(C(=O)Nc2cccc(-c3ccc4c(c3)COC3(CCNCC3)O4)c2)CC1` [CBK093674], the viability at 28.5 h, 10 µM (bulk resorufin, single well) came out at 91.4%.

As for `Cc1nnc(Sc2nc3ccccc3nc2NC(C)C)s1` [CBK093731], the viability at 28.5 h, 10 µM came to 90.6%.

On to `c1cnc(N2CCCC2)c(Sc2nc[nH]n2)n1` [CBK093737], for which the viability at 28.5 h, 10 µM stood at 102%.

Regarding `c1nc(Sc2nccs2)cc(N2CCCC2)n1` [CBK093748], the viability at 28.5 h, 10 µM was 100%.

Regarding `Clc1cc2nc(Sc3ccccn3)c(N3CCCC3)nc2cc1Cl` [CBK093754], the viability at 28.5 h, 10 µM worked out at 100%.

`Nc1ccccc1Sc1ncccc1C(F)(F)F` [CBK093758]: the viability at 28.5 h, 10 µM came out at 86.2%.

Take `COc1ccc(Sc2cc(C(F)(F)F)ccn2)cc1OC` [CBK093762]: the viability at 28.5 h, 10 µM was found to be 92.5%.

As for `Cc1csc(Sc2nccc(C(F)(F)F)n2)n1` [CBK093770], the viability at 28.5 h, 10 µM was 91.9%.

Regarding `FC(F)(F)c1ccnc(Sc2nccs2)n1` [CBK093771], the viability at 28.5 h, 10 µM amounted to 91.9%.

As for `FC(F)(F)c1nc2ccccc2nc1Sc1ccncc1` [CBK093773], the viability at 28.5 h, 10 µM was determined as 92.8%.

As for `Cn1ccnc1Sc1nc2ccccc2nc1C(F)(F)F` [CBK093778], the viability at 28.5 h, 10 µM worked out at 106%.

Take `COc1ccc(Sc2nc3ccccc3nc2C(F)(F)F)cc1OC` [CBK093779]: the viability at 28.5 h, 10 µM turned out to be 85%.

`Oc1cccc(Sc2nc3ccccc3nc2C(F)(F)F)c1` [CBK093780]: the viability at 28.5 h, 10 µM stood at 109%.

On to `Nc1ccccc1Sc1ccc(C(F)(F)F)cn1` [CBK093782], for which the viability at 28.5 h, 10 µM was found to be 91.9%.

On to `COCc1nnc(Sc2cc(NC(C)C)ncn2)s1` [CBK093784], for which the viability at 28.5 h, 10 µM is 89.3%.

As for `Cc1csc(Sc2nc3ccccc3nc2N2CCCC2)n1` [CBK093788], the viability at 28.5 h, 10 µM amounted to 99.2%.

As for `Cn1ccnc1Sc1nc2ccccc2nc1N1CCCC1` [CBK093791], the viability at 28.5 h, 10 µM came to 92.4%.

As to `c1ccc2nc(N3CCCC3)c(Sc3nccs3)nc2c1` [CBK093794], the viability at 28.5 h, 10 µM is 110%.

Take `Oc1cccc(Sc2cncc(N3CCCC3)n2)c1` [CBK093796]: the viability at 28.5 h, 10 µM amounted to 106%.

Take `COc1ccc(Sc2nc3ccccc3nc2N2CCCC2)cc1OC` [CBK093797]: the viability at 28.5 h, 10 µM was found to be 101%.

For `Nc1nnc(Sc2nccnc2N2CCCC2)s1` [CBK093804], the viability at 28.5 h, 10 µM was 103%.

As to `c1csc(Sc2nccnc2N2CCCC2)n1` [CBK093805], the viability at 28.5 h, 10 µM came out at 107%.

Take `c1cc(Sc2nccnc2N2CCCC2)ccn1` [CBK093807]: the viability at 28.5 h, 10 µM came out at 92.3%.

On to `FC(F)(F)c1nc2ccccc2nc1Sc1nc[nH]n1` [CBK093808], for which the viability at 28.5 h, 10 µM worked out at 87.6%.

As for `N#Cc1ccc(-c2cnc(NC(=O)C(F)(F)F)c(-c3ccc(C(=O)N4CCOCC4)cc3)n2)cc1` [CBK093819], the viability at 28.5 h, 10 µM was determined as 94.2%.

On to `Cc1c(Nc2ncnc3sc4c(c23)CCCC4)c(=O)n(-c2ccccc2)n1C` [CBK093912], for which the viability at 28.5 h, 10 µM was 93.1%.

With `CCc1ccc(S(=O)(=O)N2CCN(C(c3ccccc3)c3ccccc3)CC2)cc1` [CBK093948], the viability at 28.5 h, 10 µM was determined as 98.6%.

Regarding `Cc1ccc(-c2csc(NC(=O)c3ccc(S(=O)(=O)N4CCOCC4)cc3)n2)cc1` [CBK094024], the viability at 28.5 h, 10 µM was determined as 93.4%.

Take `Cc1ccc(-n2c(C)c([N+](=O)[O-])c3ccc(O)cc32)cc1` [CBK094246]: the viability at 28.5 h, 10 µM was 86.2%.

In the case of `OC(CN1CCNCC1)Cn1c2ccc(Cl)cc2c2cc(Cl)ccc21` (stereo not shown) [CBK094277G], the viability at 28.5 h, 10 µM is 68.1%.

For the compound `OC[C@H]1CCCN1c1nc(Br)cn2c(-c3ccccn3)cnc12` [CBK094394], the viability at 28.5 h, 10 µM came to 100%.

Regarding `COc1ccc(NS(=O)(=O)c2cc(C(=O)O)c(Cl)cc2Cl)cc1` [CBK095077], the viability at 28.5 h, 10 µM amounted to 89.7%.

In the case of `O=C(Oc1ccc(-n2ccnc2)cc1)c1ccc(-c2ccccc2)cc1` [CBK095145], the viability at 28.5 h, 10 µM was 93.3%.

For `CCOC(=O)c1cnc2ccc(OC)cc2c1Nc1ccc(OC)cc1` [CBK095337], the viability at 28.5 h, 10 µM was 93.7%.

Regarding `Clc1ccc(Cl)c(-c2nc3ccccc3o2)n1` [CBK095353], the viability at 28.5 h, 10 µM worked out at 91.6%.

On to `CCOCc1c(O)ccc2c([N+](=O)[O-])c(C)n(-c3ccc(OC)cc3)c12` [CBK095589], for which the viability at 28.5 h, 10 µM came to 87.8%.

As for `COc1ccc(S(=O)(=O)Nc2nc3c(s2)C(=O)CC(C)(C)C3)cc1` [CBK095611], the viability at 28.5 h, 10 µM was found to be 94.7%.

In the case of `O=C1NN(c2ccc(F)c(Cl)c2)C(=O)/C1=C/c1ccc(-c2ccc(Cl)cc2)o1` [CBK095978], the viability at 28.5 h, 10 µM turned out to be 98.1%.

For the compound `Cc1cc2nc(-c3ccc(C(=O)O)cc3)[nH]c2cc1C` [CBK096054], the viability at 28.5 h, 10 µM is 91.6%.

`CCCCC(=O)Nc1nc(-c2ccc(S(=O)(=O)N3CCOCC3)cc2)cs1` [CBK096107]: the viability at 28.5 h, 10 µM was determined as 86%.

Turning to `CCOC(=O)C1CCCCN1S(=O)(=O)c1ccc(Br)s1` (stereo not shown) [CBK096110], the viability at 28.5 h, 10 µM stood at 102%.
